Measurements published in PMC5427923, “A novel CCR2 antagonist inhibits atherogenesis in apoE deficient mice by achieving high receptor occupancy” (Scientific Reports, 2017).

Columns and labels:
apoE−/− mice [1] = assay: Atherosclerotic lesion development in Western-type diet fed apoE−/− mice (carotid collar, aortic root); assay type: in vivo, mouse
Text: Male apoE^−/− mice (10–12 weeks old), obtained from the local animal breeding facility (Gorlaeus Laboratories, Leiden, The Netherlands), were fed a Western type diet, containing 0.25% cholesterol and 15% cocoabutter (SDS, Sussex, UK).
(§1) To determine the effect of the CCR2 antagonist on atherosclerotic lesion development, mice were fed a Western type diet, containing 0.25% cholesterol and 15% cocoabutter (SDS, Sussex, UK) throughout the experiment starting two week before surgery. Carotid artery plaque formation was induced by perivascular collar placement as described previously[46] and from the time of surgery, the mice received daily intraperitoneal injections containing 15a (5 mg/kg/day) or vehicle control (n = 9–10 per group). During the experiment, total body weight and weight gain were measured. Serum total cholesterol levels were determined using an enzymatic colorimetric assay according to manufacturer’s protocol (Roche Diagnostics). Precipath (standardized serum; Boehringer Mannheim, Germany) was used as an internal standard. Plasma cytokine levels were measured by ELISA according to manufacturer’s protocol (BD Biosciences). Blood was collected weekly via tail cut. Total cell count and cellular differentiation patterns in blood were analyzed using an automated XT-2000iV veterinary hematology analyzer (Sysmex Europe GMBH, Norderstedt, Germany). After erythrocyte lysis, blood leukocyte suspensions were stained for surface markers, after which their expression was determined by FACS analysis (FACS Canto, BD Biosciences). After 4 weeks of lesion development, the animals were anaesthetized and blood was collected. After in situ perfusion through the left cardiac chamber, the carotid arteries and hearts were harvested.
Carotid artery cryosections of 5 µm thick were prepared, which were stained with hematoxylin-eosin to determine plaque size and necrotic core size. Morphometric analysis was performed on sections throughout the atherosclerotic lesion (100 µm apart) and at the site of maximal stenosis using Leica Qwin image analysis software. The relative necrotic area was defined as the a-cellular, debris-rich plaque area as percentage of total plaque area, and also quantified using Leica QWin software.
The hearts were dissected just below the atria and sectioned perpendicular to the axis of the aorta, starting within the heart and working in the direction of the aortic arch. Once the aortic root was identified by the appearance of aortic valve leaflets, 10 µm sections were collected. Mean lesion area (in µm^2) of the aortic root was calculated from six Oil-Red-O stained sections in distal direction starting at the point where all three aortic valve leaflets first appeared.
(§2) Macrophage content of the lesions in carotid arteries and aortic roots was stained using a rat monoclonal MOMA2 antibody (1:1000, Serotec, Kidlington, Oxford, UK). Macrophage positive areas were analyzed using computer-assisted colour-gated analysis, and related to the total intimal surface area (Leica QWin). Liver cryosections of 10 µm thick were prepared and subsequently stained with hematoxylin-eosin to analyze liver morphology, which was assessed using a Leica DMRE microscope (Leica Ltd., Cambridge, England).

apoE−/− mice [2] = assay: Body weight, cholesterol, liver toxicity markers and plasma cytokines in treated apoE−/− mice; assay type: in vivo, mouse
Procedure: as §1, §2
Total RNA was extracted from homogenized liver tissue with the guanidium thiocyanate-phenol-bromochloropropane extraction method. RNA concentration, purity and integrity were examined by nanodrop (Nanodrop® Technologies). RNA was reverse transcribed by M-MuLV reverse transcriptase (RevertAid, MBI Fermentas, Landsmeer, The Netherlands) and used for quantitative analysis of the mouse genes ALT, AST, apoH and GC with an ABI PRISM 7700 Taqman apparatus (Applied Biosystems). For qPCR primer pairs refer to Supplementary Table S1.

For `CC(C)[C@]1(C(=O)N2CCc3ccc(C(F)(F)F)cc3C2)CC[C@@H](N[C@@H]2CCc3cc(Br)ccc32)C1` [15a, ((1S,3R)-3-(((R)-5-bromo-2,3-dihydro-1H-inden-1-yl)amino)-1-isopropylcyclopentyl)(7-(trifluoromethyl)-3,4-dihydroisoquinolin-2(1H)-yl)methanone], the “atherosclerotic plaque size in the carotid artery at the site of maximal stenosis” value (apoE−/− mice [1]; 5 mg/kg/day i.p., 4 weeks, controls 64.4 ± 11.8) was 17.6 ± 4.1 *10^3 µm^2, the relative necrotic area (apoE−/− mice [1]; carotid artery plaques, controls 35.3 ± 8.2%) was 7.6 ± 4.5% and the “plaque volume throughout the carotid arteries” value (apoE−/− mice [1]; controls 1.75 ± 0.33) was 0.46 ± 0.13 *10^7 µm^3. The “aortic root plaque volume” value (apoE−/− mice [1]; controls 11.8 ± 1.2) was 7.4 ± 0.7 *10^7 µm^3, the “macrophage positive area of the carotid artery plaques (MOMA2)” value (apoE−/− mice [1]; controls 22.3 ± 4.1) was 6.2 ± 2.5 *10^3 µm^2 and the “relative macrophage content (corrected for lesion size), carotid artery” value (apoE−/− mice [1]; controls 46 ± 4%) was 25 ± 8%. For the same compound, the “macrophage positive area, aortic root” value (apoE−/− mice [1]; controls 92.0 ± 15.6) was 37.2 ± 8.7 *10^3 µm^2, the “aortic root average plaque size” value (apoE−/− mice [1]; controls 215.9 ± 24.6) was 157.0 ± 15.7 *10^3 µm^2 and the “reduction in carotid artery lesion size” value (apoE−/− mice [1]; mouse, in vivo) was “more than 70%”. For the same compound, the “change in carotid artery plaque size versus control” value (apoE−/− mice [1]; site of maximal stenosis) was −73%, the body weight (apoE−/− mice [2]; 5 mg/kg/day i.p., four weeks) was “not significantly affected” and the body weight gain (apoE−/− mice [2]; 5 mg/kg/day i.p., four weeks) was “not affected”. The “plasma total cholesterol levels” value (apoE−/− mice [2]; 5 mg/kg/day i.p., four weeks) was “not significantly affected”, the “liver mRNA levels of AST” value (apoE−/− mice [2]; P = 0.02) was “somewhat decreased” and the “liver mRNA expression of the toxicity markers ALT, apoH and GC” value (apoE−/− mice [2]; mouse, in vivo) was “did not affect”. For the same compound, the “plasma CCL2 levels” value (apoE−/− mice [2]; mouse, in vivo) was “increased”, the “plasma IL-6 levels” value (apoE−/− mice [2]; mouse, in vivo) was “remained unaffected” and the liver morphology (apoE−/− mice [2]; versus controls) was “similar”.
